In ChEMBL document CHEMBL1201862, “PubChem BioAssay data set” (2004):
Values belong to the compound of their own block, whether it stands above or below them. The source made the active and inactive calls.

What was measured:
[1] = target: T1, Tyrosine-protein phosphatase non-receptor type 22 (Homo sapiens, UniProt Q9Y2R2); format: functional
[2] = target: T1, Tyrosine-protein phosphatase non-receptor type 22; format: functional; remark: listed apart in the source
[3] = target: T2, Tyrosine-protein phosphatase non-receptor type 7 (Homo sapiens, UniProt P35236); format: functional
T2 sequence (P35236 whole entry): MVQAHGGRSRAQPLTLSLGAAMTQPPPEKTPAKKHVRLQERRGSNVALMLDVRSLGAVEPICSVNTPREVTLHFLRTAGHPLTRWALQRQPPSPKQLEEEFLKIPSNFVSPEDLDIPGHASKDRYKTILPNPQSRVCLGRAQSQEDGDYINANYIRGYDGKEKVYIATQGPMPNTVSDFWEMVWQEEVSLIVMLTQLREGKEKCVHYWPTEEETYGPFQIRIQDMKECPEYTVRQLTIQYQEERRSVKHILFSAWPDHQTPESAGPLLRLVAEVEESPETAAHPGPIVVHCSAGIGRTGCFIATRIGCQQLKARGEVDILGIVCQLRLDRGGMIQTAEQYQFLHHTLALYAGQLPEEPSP

[4] = target: T2, Tyrosine-protein phosphatase non-receptor type 7; assay: redox-dependent HePTP inhibition, mechanism study, biochemical, fluorescence (AID 2068); format: functional
Troponin, cardiac muscle = Troponin, cardiac muscle (Homo sapiens, UniProt P19429+P45379+P63316); assay: Fluorescence-based biochemical high throughput dose response assay for activators of the calcium sensitivity of cardiac Regulated Thin Filaments (RTF). [Related pubchem assays (depositor defined):AID493008, AID493018, AID504382, AID504383]; format: protein-complex assay
[5] = target: Eukaryotic translation initiation factor 4H (Homo sapiens, UniProt Q15056); assay: eIF4H inhibition in translation initiation, SAR follow-up (AID 435011); format: functional
Hexokinase HKDC1 [6] = target: T3, Hexokinase HKDC1 (Homo sapiens, UniProt Q2TB90); assay: HKDC1 hexokinase inhibitors, dose response, biochemical, W721R variant (AID 504729); format: functional
T3 sequence (Q2TB90 whole entry): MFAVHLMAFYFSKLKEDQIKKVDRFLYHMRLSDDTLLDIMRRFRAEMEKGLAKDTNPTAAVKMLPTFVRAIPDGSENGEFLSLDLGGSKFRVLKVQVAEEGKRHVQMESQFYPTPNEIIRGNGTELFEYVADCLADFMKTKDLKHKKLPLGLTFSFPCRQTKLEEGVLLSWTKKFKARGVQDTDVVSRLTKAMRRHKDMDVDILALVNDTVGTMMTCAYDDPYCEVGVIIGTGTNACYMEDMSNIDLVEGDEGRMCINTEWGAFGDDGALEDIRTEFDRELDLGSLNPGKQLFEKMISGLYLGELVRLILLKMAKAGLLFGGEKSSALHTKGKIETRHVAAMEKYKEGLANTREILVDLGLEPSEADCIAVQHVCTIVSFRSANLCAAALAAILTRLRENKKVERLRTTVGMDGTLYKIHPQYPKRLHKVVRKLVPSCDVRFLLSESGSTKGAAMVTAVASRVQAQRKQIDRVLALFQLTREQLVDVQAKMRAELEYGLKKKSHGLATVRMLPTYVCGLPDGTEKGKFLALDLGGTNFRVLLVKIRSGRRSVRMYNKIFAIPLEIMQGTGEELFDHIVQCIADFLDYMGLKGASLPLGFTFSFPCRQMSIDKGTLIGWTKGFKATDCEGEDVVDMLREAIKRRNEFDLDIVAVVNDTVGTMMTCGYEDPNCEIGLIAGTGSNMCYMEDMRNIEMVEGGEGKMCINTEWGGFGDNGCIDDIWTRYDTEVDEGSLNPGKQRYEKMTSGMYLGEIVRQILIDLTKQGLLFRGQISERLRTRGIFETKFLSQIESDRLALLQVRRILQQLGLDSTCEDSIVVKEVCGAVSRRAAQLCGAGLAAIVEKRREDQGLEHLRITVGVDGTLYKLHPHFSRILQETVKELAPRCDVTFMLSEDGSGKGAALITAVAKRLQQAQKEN

[7] = target: Polyadenylate-binding protein 1 (Homo sapiens, UniProt P11940); assay: PABP inhibition in translation initiation, SAR follow-up (AID 435018); format: functional
Mu-type opioid receptor = Mu-type opioid receptor (Homo sapiens, UniProt P35372); assay: SAR Analysis of Antagonists of the MOR Receptor using an Image-Based Assay - Set 3. [Related pubchem assays (depositor defined):AID1777, AID1785, AID1786, AID1966, AID2133, AID2136, AID2284, AID2285, AID2420]; format: functional
[8] = target: T4, Kappa-type opioid receptor (Homo sapiens, UniProt P41145); assay: SAR analysis of small molecule antagonists of the kappa opioid receptor via a luminescent beta-arrestin assay - Set 4. [Related pubchem assays (depositor defined):AID1777, AID1778, AID1785, AID1786, AID1966, AID2133, AID2136, AID2285]; format: functional
[9] = target: Delta-type opioid receptor (Homo sapiens, UniProt P41143); assay: SAR Analysis of Antagonists of the DOR Receptor using an Image-Based Assay - Set 3. [Related pubchem assays (depositor defined):AID1777, AID1785]; format: functional;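 note: U2OS cells expressing DOR1 and beta-arrestin GFP stimulated with 100 nM SNC80; imaging of GFP-tagged beta-arrestin moving into spots after receptor activation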
[10] = target: T4, Kappa-type opioid receptor; assay: SAR analysis of Antagonists of the Kappa Opioid Receptor (KOR) using an Image-Based Assay - Set 4. [Related pubchem assays (depositor defined):AID1777, AID1785]; format: functional
[11] = inhibitors of firefly luciferase expression or activity, dose response, H4 neuroglioma cells, luminescence (AID 1990); format: functional, cell-based
J774.A1 = assay: Confirmation of image-based Screening Assay for Inhibitors of Phagocytosis. [Related pubchem assays (depositor defined):AID1029, AID1643]; format: functional, cell-based; settings: Mus musculus
[12] = inhibitors of SNCA 5'UTR-driven reporter translation, confirmation, H4 neuroglioma cells, luminescence (AID 1988); format: functional, cell-based
[13] = target: Voltage-dependent T-type calcium channel subunit alpha-1H (Homo sapiens, UniProt O95180); assay: Cav3.2 T-type channel inhibitors, cell-based, synthetic library set 1, calcium flux (AID 493022); format: functional
Hexokinase HKDC1 [14] = target: T3, Hexokinase HKDC1; assay: HKDC1 hexokinase activators, dose response, biochemical, W721R variant (AID 504730); format: functional
fMet-Leu-Phe receptor = target: T5, fMet-Leu-Phe receptor (Homo sapiens, UniProt P21462); assay: FPR ligands, dose response (AID 519); format: functional
T5 sequence (P21462 whole entry): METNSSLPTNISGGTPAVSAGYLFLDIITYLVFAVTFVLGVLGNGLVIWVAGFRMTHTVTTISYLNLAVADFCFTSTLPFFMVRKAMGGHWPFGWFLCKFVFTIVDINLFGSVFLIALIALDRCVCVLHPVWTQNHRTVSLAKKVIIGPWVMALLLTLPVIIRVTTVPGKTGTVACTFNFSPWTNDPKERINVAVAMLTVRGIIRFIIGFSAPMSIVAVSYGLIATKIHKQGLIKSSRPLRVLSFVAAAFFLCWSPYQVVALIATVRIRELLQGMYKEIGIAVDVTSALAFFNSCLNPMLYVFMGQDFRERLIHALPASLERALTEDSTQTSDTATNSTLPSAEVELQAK

[15] = target: T6, Runt-related transcription factor 1/Core-binding factor subunit beta (Homo sapiens, UniProt Q01196+Q13951); assay: inhibitors of RUNX1 Runt–CBFb-SMMHC binding, primary screen, biochemical, FRET, Cerulean-Runt, Venus-CBFb-SMMHC, uHTS (AID 1434); format: protein assay;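 note: partner is the CBFb-SMMHC leukemia fusion protein rather than wild-type CBFb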
[16] = target: T6, Runt-related transcription factor 1/Core-binding factor subunit beta; assay: inhibitors of RUNX1 Runt–CBFb-SMMHC binding, biochemical, TR-FRET (AID 1438); format: protein assay
[17] = target: E3 ubiquitin-protein ligase XIAP (Homo sapiens, UniProt P98170); assay: Counter Screen using XIAP-Bir3 for Chemical Antagonists of Bir1/2 domains of IAP-family anti-apoptotic proteins. [Related pubchem assays (depositor defined):AID1018, AID1449, AID1514, AID1638, AID1749, AID1750, AID488957, AID488963]
[18] = target: T7, Short transient receptor potential channel 4 (Mus musculus, UniProt Q9QUQ5); assay: TRPC4 positive allosteric modulators, dose response, cell-based, HEK293 TRPC4/mu-opioid, Fluo-4 calcium, EC20 DAMGO (AID 434941); format: functional
T7 sequence (Q9QUQ5 whole entry): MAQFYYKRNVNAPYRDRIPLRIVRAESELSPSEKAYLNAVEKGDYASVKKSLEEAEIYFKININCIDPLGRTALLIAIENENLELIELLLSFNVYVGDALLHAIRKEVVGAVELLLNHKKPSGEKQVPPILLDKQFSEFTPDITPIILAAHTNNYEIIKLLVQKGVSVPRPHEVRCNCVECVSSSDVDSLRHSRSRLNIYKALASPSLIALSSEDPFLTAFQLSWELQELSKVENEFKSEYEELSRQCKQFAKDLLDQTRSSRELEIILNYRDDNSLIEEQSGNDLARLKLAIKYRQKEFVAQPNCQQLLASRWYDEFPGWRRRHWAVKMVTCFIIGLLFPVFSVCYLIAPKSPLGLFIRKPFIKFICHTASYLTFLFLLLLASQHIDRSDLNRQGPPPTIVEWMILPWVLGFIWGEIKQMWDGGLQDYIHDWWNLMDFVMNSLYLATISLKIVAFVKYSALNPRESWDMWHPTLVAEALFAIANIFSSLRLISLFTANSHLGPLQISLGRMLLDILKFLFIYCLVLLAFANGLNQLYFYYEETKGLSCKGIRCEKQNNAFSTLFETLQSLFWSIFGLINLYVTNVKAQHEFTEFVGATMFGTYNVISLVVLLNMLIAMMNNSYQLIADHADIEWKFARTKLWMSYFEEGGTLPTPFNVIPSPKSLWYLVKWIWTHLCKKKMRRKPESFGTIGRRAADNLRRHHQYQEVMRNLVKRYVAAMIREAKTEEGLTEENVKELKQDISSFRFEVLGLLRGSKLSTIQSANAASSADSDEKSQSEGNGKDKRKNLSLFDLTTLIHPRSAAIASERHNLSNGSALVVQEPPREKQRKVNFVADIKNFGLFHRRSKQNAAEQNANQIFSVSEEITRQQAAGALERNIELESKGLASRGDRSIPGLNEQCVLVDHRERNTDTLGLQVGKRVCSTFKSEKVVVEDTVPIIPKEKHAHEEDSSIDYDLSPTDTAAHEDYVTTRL

[19] = target: T4, Kappa-type opioid receptor; assay: SAR analysis of Antagonists of the Kappa Opioid Receptor (KOR) using an Image-Based Assay - Set 3. [Related pubchem assays (depositor defined):AID1777, AID1785]; format: functional
[20] = target: T4, Kappa-type opioid receptor; assay: SAR analysis of small molecule antagonists of the kappa opioid receptor via a luminescent beta-arrestin assay - Set 3. [Related pubchem assays (depositor defined):AID1777, AID1778, AID1785, AID1786, AID1966, AID2133, AID2136, AID2285, AID2495]; format: functional
T-cell = assay: inhibitors of CD8+ T cell–vesicle binding, dose response, mouse 2C CD8+ T cells, flow cytometry (AID 485284); format: functional

Structure (SMILES): CCN(CCO)Cc1csc2ccc(C(C)(C)C)cc12
IC50 [1]: > 79.4 µM (inactive)
IC50 [2]: > 79.4 µM (inactive)
IC50 [3]: > 79.4 µM (inactive)

Structure (SMILES): Cc1ccc(C)c(N2CCN(C(=O)CN3C(S)=NC(C)(C)CC3C)CC2)c1 (configuration not stated)
EC50 (Troponin, cardiac muscle): > 71.5 µM (inactive)

Structure (SMILES): COc1ccc(NC(=O)CSc2ccc(-c3ccco3)nn2)cc1OC
IC50 [5]: 73.8 µM (active)
IC50 (Hexokinase HKDC1 [6]): 13.6 µM (active)
IC50 [7]: > 100 µM (inactive)

Structure (SMILES): Cc1ccc(S(=O)(=O)NCc2ccc(C(=O)NC3CCCN(Cc4ccccc4)C3)cc2)cc1 (configuration not stated)
IC50 (Mu-type opioid receptor): 6.75 µM (active)
IC50 [8]: 18.6 µM (inactive)
IC50 [9]: > 32 µM (inactive)
IC50 [10]: > 32 µM (inactive)

Structure (SMILES): CCc1ccc(-c2nc(C(N)=O)c3nc(O)n(-c4ccccc4OC)c3n2)cc1
EC50 [11]: 8.19 µM (active)
IC50 (J774.A1): 12.5 µM (active)
EC50 [12]: 0.185 µM (active)

Structure (SMILES): O=C(NCc1ccccn1)c1cc2c(ccc3ccccc32)oc1=O
IC50 [15]: 1.33 µM (active)
IC50 [16]: > 100 µM (inactive)

Structure (SMILES): CC(C)(C)c1ccc(C(CC(=O)O)NC(=O)Cc2ccc(F)cc2)cc1 (configuration not stated)
IC50 [17]: > 20 µM (inactive)

Structure (SMILES): O=C(NCCN(Cc1ccccc1)Cc1ccccc1)c1ccc(CNS(=O)(=O)c2ccc(Br)cc2)cc1
IC50 (Mu-type opioid receptor): > 32 µM (inactive)
IC50 [19]: 6.08 µM (active)
IC50 [9]: > 32 µM (inactive)
IC50 [20]: > 20 µM (inactive)

Structure (SMILES): CCCCn1nc(C(=O)N2CCN(S(=O)(=O)c3ccccc3)CC2)c2ccccc2c1=O
EC50 (T-cell): 10.3 µM (active)

Second part, the compound after the results:

IC50 [4]: > 50 µM (inactive)
Structure (SMILES): O=C(NCc1ccco1)Nc1ccc2nc(-c3ccco3)c(-c3ccco3)nc2c1

EC50 [13]: 2.6 µM (active)
Structure (SMILES): Cc1ccc(-c2nnc(NC(=O)C(C)Oc3ccccc3)o2)cc1C (configuration not stated)

EC50 (Hexokinase HKDC1 [14]): > 80 µM (inactive)
Ki (fMet-Leu-Phe receptor): 29.7 µM (inactive)
Structure (SMILES): COCc1cc(C2C(C(=O)c3ccco3)=C(O)C(=O)N2CCOCCO)ccc1O (configuration not stated)

EC50 [18]: 2.99 µM (active)
Structure (SMILES): O=C(Nc1ccccc1)C1=C[C@H](C2CCCCC2)C[C@H](OCc2ccc(CO)cc2)O1
